These are literature values, as cited in patent US20210283075A1, “METHODS OF TREATING ATTENTION DEFICIT HYPERACTIVITY DISORDER” (Ovid Therapeutics, Inc., priority 2018, published 2021).

The conditions of data set [1]: compared to lorazepam.
The conditions of data set [2]: compared to placebo.
Data set [3] addresses sigma-1 receptor (Homo sapiens, UniProt Q99720).
Data set [4] addresses T1, 5-HT2C (Homo sapiens, UniProt P28335).
T1 sequence (P28335 33-458): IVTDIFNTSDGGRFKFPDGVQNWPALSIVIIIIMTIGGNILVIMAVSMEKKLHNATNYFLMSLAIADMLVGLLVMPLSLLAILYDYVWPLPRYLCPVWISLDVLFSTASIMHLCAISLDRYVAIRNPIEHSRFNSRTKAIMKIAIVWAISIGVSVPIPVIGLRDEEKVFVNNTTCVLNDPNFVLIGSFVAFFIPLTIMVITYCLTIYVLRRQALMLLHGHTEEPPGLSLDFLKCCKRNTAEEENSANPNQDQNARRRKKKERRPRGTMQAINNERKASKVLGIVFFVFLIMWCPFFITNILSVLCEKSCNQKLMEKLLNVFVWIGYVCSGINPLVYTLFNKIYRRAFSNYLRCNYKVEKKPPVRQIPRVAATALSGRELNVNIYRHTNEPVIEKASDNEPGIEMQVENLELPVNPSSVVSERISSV

Data set [5] concerns the target dopamine D3 (Homo sapiens, UniProt P35462).
The subject of data set [6] is brain-derived neurotrophic factor (BDNF). Particulars: hypothalamus.

dopamine D3, sequence (P35462 whole entry): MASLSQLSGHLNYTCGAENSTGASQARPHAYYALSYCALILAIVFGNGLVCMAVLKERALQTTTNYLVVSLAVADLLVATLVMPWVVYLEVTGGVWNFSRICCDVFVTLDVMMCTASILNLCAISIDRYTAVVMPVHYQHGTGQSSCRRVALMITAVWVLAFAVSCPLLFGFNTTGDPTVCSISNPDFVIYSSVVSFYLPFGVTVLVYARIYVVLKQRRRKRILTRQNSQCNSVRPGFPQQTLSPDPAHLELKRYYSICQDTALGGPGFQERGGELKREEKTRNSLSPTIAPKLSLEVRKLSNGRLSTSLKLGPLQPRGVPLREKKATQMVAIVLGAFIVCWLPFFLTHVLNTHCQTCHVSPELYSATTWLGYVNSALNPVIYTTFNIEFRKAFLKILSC
sigma-1 receptor, sequence (Q99720 whole entry, species assumed): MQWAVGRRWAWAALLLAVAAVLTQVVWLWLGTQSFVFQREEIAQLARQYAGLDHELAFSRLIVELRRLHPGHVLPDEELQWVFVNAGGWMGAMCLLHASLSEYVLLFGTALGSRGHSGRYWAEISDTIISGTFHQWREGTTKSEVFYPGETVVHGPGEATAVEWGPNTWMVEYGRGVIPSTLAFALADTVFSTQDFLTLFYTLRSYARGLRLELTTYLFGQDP

Turning to `CCCCSc1ccc(C(SCCN(C)C)c2ccccc2)cc1` (stereo not shown) [Captodiamine, 2-[(4-butylsulfanylphenyl)-phenyl-methyl]sulfanyl-N,N-dimethylethanamine], the “concentration and dexterity when driving” value in data set [1] is “improved the concentration and dexterity”. Moreover, in data set [1] (when driving), the tendency to drowsiness entry is reported as “without inducing a tendency to drowsiness”. For the same molecule, the “severity of benzodiazepine withdrawal symptoms” value in data set [2] is reported as “lower severity of benzodiazepine withdrawal symptoms”. In addition, the “activity at sigma-1 receptor” value in data set [3] is listed as “sigma-1 receptor agonist”. For the same molecule, in data set [4], the “activity at 5-HT2C” value is on record as 5-HT2C antagonist. Besides, the “activity at dopamine D3” value in data set [5] is given as “dopamine D3 agonist”. Further, the BDNF protein levels result in data set [6] is listed as “increase”.
